According to patent publication US12514900B2, “Method to identify responders to osteoarthritis therapeutics” (OrthoTrophix, Inc., priority 2020, dated 2026):
Where no end group is shown, it is not given here.

Key:
subjects with knee OA [1] = conditions: cited from earlier work
[2] = molecular target: integrin αVβ3 expressed by osteocytes (Homo sapiens, UniProt P05106+P06756); conditions: cited from earlier work
human and rat bone cells = conditions: human and rat/murine orthologues; cited from earlier work
[3] = tested on: subjects with bilateral knee osteoarthritis; conditions: human, in vivo
Method: Eighteen (18) orthopedic, rheumatologic and family practice centers in the U.S. participated in the study.
On the first dosing day, the randomized subjects were assessed by physical examinations and vital signs. Further, they completed the Knee injury and Osteoarthritis Outcome Score (KOOS), which includes the Western Ontario and McMaster Universities Osteoarthritis Index (WOMAC). The KOOS questionnaire assesses knee-specific activities of daily living, sports and recreation, knee-related quality of life, other symptoms such as stiffness, and knee pain. […] After assessments were completed, subjects received one intra-articular injection in each knee, with each injection prepared from the vial(s) marked for that knee. […] Subjects were monitored for adverse events during the injections and for a few hours after the injections. Vital signs were also monitored after the injections.
On the 7th, 14th, and 21st days after the first dosing, subjects received the second, third, and fourth (last) dosing of the same study materials, respectively. Safety and adverse event assessments were obtained as on the first dosing day.
Subjects returned to their respective study sites at 3, 6 and 12 months after the first dosing day for follow-up evaluations. In addition, the study sites monitored the subject's condition through telephone contact 9 months after the first dosing day. During the 3, 6, and 12 months post-treatment, subjects were evaluated on site with physical examinations, vital signs, serum chemistries, as well as completing patient-reported outcomes including the KOOS. Adverse events and concomitant medications were recorded. MRIs of both knees were obtained during the 6 and 12-month visits.

subjects with knee OA [4] = conditions: cited from earlier work; remark: listed apart in the source

Sequence of integrin αVβ3 expressed by osteocytes (P06756 31-889 limits assumed): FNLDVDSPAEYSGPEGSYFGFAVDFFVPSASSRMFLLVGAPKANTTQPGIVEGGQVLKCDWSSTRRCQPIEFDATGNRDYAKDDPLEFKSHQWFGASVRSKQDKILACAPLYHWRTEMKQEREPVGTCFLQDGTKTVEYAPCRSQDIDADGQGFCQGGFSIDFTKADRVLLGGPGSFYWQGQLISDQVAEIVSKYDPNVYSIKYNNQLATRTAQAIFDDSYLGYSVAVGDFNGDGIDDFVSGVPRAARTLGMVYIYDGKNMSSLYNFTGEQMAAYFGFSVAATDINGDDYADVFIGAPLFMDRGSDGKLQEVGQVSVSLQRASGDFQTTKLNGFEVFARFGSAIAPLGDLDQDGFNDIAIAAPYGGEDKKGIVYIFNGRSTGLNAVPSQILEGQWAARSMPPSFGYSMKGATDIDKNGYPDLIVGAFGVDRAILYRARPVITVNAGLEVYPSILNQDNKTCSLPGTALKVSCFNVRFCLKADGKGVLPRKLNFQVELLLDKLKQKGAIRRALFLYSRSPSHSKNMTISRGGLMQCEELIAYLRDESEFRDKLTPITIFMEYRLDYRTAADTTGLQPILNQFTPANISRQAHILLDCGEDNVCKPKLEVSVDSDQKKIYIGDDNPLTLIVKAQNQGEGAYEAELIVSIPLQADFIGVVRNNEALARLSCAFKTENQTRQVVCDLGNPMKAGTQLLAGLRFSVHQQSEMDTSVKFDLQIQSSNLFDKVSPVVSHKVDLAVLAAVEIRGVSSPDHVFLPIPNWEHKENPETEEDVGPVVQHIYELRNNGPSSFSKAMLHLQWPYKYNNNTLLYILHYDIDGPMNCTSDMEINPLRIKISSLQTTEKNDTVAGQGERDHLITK
Sequence of integrin αVβ3 expressed by osteocytes (P06756 891-1048 limits assumed): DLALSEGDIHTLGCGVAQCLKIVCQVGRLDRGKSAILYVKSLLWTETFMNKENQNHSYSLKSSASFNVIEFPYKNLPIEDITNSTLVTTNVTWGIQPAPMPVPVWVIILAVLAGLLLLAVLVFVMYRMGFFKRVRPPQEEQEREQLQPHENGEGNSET
Sequence of integrin αVβ3 expressed by osteocytes (P05106 27-788): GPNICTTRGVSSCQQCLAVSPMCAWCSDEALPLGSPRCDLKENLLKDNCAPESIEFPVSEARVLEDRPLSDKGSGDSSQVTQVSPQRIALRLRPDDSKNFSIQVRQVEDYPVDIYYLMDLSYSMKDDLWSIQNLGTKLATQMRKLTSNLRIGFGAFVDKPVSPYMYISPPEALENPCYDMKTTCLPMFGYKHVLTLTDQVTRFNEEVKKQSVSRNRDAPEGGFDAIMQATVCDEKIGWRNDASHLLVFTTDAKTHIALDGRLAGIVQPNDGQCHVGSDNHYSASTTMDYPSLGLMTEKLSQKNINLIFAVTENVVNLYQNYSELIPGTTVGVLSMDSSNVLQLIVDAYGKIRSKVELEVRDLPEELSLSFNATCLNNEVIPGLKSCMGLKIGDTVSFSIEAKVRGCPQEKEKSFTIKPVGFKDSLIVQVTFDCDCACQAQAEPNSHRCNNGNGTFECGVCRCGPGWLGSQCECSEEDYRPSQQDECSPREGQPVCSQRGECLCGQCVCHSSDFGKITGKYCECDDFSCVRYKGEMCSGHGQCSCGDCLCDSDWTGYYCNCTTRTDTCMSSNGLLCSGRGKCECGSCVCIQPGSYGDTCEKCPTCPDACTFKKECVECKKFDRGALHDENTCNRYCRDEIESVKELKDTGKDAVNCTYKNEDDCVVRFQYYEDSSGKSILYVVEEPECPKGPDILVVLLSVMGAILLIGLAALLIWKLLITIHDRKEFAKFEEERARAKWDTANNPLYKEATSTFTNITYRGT

For `O=P(O)(O)C(O)(Cc1cccnc1)P(=O)(O)O` [risedronate], the Effects on pain (subjects with knee OA [1]; largest study, n=2483 (Bingham 2006)) is listed as “favoring placebo over active drug”.

For PDLQERGDNDISPFSGDGQPFKD [SEQ ID No: 12], the “Binding to integrin αVβ3” value [2] is given as “selectively bind to integrin αVβ3”.

In the case of `N#Cc1c(N(CC(=O)[O-])CC(=O)[O-])sc(C(=O)[O-])c1CC(=O)[O-].[Sr+2].[Sr+2]` [strontium ranelate], the “Risk of myocardial infarction” value (subjects with knee OA [1]; human, in vivo) is given as “increase the risk of myocardial infarction”.

In the case of PDLLVRGDNDVPPFSGDGQHFMH [SEQ ID No: 14], the “Biological activities in bone cells of the other species” value (human and rat bone cells) is listed as “interchangeably show biological activities in the bone cells of the other species”.

With TDLQERGDNDISPFSGDGQPFKD [SEQ ID No: 10] the Safety and tolerability [3] was “safe and well tolerated”, the “Severe adverse events related to the peptide” value [3] was “no severe adverse events” and the Treatment-related adverse events [3] was “mild or moderate, transient”.

B1: Fibroblast Growth Factor-18 (protein, UniProt O76093 28-207, looked up)
Fibroblast growth factor 18: EENVDFRIHVENQTRARDDVSRKQLRLYQLYSRTSGKHIQVLGRRISARGEDGDKYAQLLVETDTFGSQVRIKGKETEFYLCMNRKGKLVGKPDGTSKECVFIEKVLENNYTALMSAKYSGWYVGFTKKGRPRKGPKTRENQQDVHFMKRYPKGQPELQKPFKYTTVTKRSRRIRPTHPA
notes: growth factor tested for cartilage regeneration in knee OA
For B1, the “Clinical outcomes such as knee function or pain vs placebo” value (subjects with knee OA [4]) is given as “no significant improvement” and the Tibiofemoral cartilage thickness (subjects with knee OA [4]) is given as “small but statistically significant increase”.
